Results reported in patent US10329270B2, “Heteroaryl compounds as BTK inhibitors and uses thereof” (Merck Patent GmbH, priority 2013, dated 2019).

How the values were obtained:
PBMC = experiment: Assay B: Time Dependent PMBC IC50 Assay; assay type: cell-based
Description: Assay B: Time Dependent PMBC IC50 Assay
Compounds described by embodiments of the present invention were assayed using a time dependent PMBC assay. The data from the same is recorded in Table 2 within the column labeled: “Time Dependent PBMC Assay IC50.” These IC50 values are reported in ranges wherein: I<1 uM and II>1 uM.

full-length human BTK = target: T1, full-length human BTK (Homo sapiens, UniProt Q06187); experiment: Assay A: BTK IC50 Enzyme Assay (microfluidic off-chip mobility shift kinase assay); assay type: biochemical; details: full-length human BTK, kinKDR peptide substrate, incubated 90 min at 27 C; read-out: Assay A (Time Dependent BTK Enzyme Assay IC50)
T1 construct: 2.5× stocks of full-length human BTK (08-080); purchased CarnaBio USA, Inc., Natick, Mass; 08-080
How it was run: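 Off-chip microfluidic mobility shift assay with full-length human BTK; phosphorylated and unphosphorylated peptide substrate were separated by charge/mass on a LabChip 3000.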

T1 sequence (Q06187 whole entry): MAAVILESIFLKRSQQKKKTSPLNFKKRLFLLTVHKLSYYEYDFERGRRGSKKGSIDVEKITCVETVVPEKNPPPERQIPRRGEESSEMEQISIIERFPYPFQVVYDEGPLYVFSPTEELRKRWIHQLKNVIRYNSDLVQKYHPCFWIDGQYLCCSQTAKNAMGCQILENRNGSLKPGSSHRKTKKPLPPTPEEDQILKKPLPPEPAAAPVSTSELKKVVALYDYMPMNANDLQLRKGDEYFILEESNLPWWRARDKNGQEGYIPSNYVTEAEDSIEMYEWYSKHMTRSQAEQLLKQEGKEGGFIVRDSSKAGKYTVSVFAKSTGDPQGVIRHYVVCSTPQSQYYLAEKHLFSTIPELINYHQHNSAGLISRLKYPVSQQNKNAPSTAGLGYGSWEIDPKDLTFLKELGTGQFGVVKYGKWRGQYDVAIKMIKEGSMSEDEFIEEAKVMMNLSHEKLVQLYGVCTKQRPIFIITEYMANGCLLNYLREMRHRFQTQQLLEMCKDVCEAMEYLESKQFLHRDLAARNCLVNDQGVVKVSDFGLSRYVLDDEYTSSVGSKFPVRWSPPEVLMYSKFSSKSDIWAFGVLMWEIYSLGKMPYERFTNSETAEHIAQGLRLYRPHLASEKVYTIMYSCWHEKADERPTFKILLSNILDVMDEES

Structure (SMILES)	IC50 (full-length human BTK)	IC50 (PBMC)
C=CC(=O)N[C@H]1CCN(c2ccc(C(N)=O)c(Nc3ccc(C4CCN(C)CC4)cc3)n2)C1 [Compound 14, 6-((S)-3-Acryloylamino-pyrrolidin-1-yl)-2-[4-(1-methyl-piperidin-4-yl)-phenylamino]-nicotinamide]	< 100 nM	< 100 nM
C=CC(=O)N1CCC2(CCN(c3ccc(C(N)=O)c(Nc4ccc(CCN5CCCC5)cc4)n3)C2)C1 (stereo not drawn) [Compound 20, 6-(7-Acryloyl-2,7-diaza-spiro[4.4]non-2-yl)-2-[4-(2-pyrrolidin-1-yl-ethyl)-phenylamino]-nicotinamide]	< 100 nM	< 100 nM
C=CC(=O)N[C@@H]1CN(c2ccc(C(N)=O)c(Nc3ccc(CCN4CCCC4)cc3)n2)CC12CC2 [Compound 7, 6-((S)-7-Acryloylamino-5-aza-spiro[2.4]hept-5-yl)-2-[4-(2-pyrrolidin-1-yl-ethyl)-phenylamino]-nicotinamide]	< 100 nM	< 100 nM
C=CC(=O)N1CCN(c2ccc(C(N)=O)c(Nc3ccc(CCN4CCCC4)cc3)n2)CC1 [Compound 12, 6-(4-Acryloyl-piperazin-1-yl)-2-[4-(2-pyrrolidin-1-yl-ethyl)-phenylamino]-nicotinamide]	< 100 nM	< 100 nM
C=CC(=O)N(C)[C@H]1CCN(c2ccc(C(N)=O)c(Nc3ccc(CCN4CCCC4)cc3)n2)C1 [Compound 30, 6-[(S)-3-(Acryloyl-methyl-amino)-pyrrolidin-1-yl]-2-[4-(2-pyrrolidin-1-yl-ethyl)-phenylamino]-nicotinamide]	< 100 nM	< 100 nM
C=CC(=O)N1C[C@@H]2C[C@H]1CN2c1ccc(C(N)=O)c(Oc2ccc(Oc3ccccc3)cc2)n1 [Compound 23, 6-((1S,4S)-5-acryloyl-2,5-diazabicyclo[2.2.1]heptan-2-yl)-2-(4-phenoxyphenoxy)nicotinamide]		< 100 nM
C=CC(=O)N[C@H]1CCN(c2ccc(C(N)=O)c(Nc3ccc(CCN4CCCC4)cc3)n2)C1 [Compound 16, 6-((S)-3-Acryloylamino-pyrrolidin-1-yl)-2-[4-(2-pyrrolidin-1-yl-ethyl)-phenylamino]-nicotinamide]	< 100 nM	< 100 nM
C=CC(=O)N1C2CCC1CN(c1ccc(C(N)=O)c(Oc3ccc(Oc4ccccc4)cc3)n1)C2 [Compound 68, 6-(8-Acryloyl-3,8-diaza-bicyclo[3.2.1]oct-3-yl)-2-(4-phenoxy-phenoxy)-nicotinamide]		< 100 nM
C=CC(=O)N1CC=C(c2ccc(C(N)=O)c(Nc3ccc(CCN4CCCC4)cc3)n2)CC1 [Compound 17, 1′-Acryloyl-6-[4-(2-pyrrolidin-1-yl-ethyl)-phenylamino]-1′,2′,3′,6′-tetrahydro-[2,4′]bipyridinyl-5-carboxylic acid amide]	< 100 nM	< 100 nM
C=CC(=O)N1CC[C@@H](Nc2ccc(C(N)=O)c(Oc3ccc(Oc4ccccc4)cc3)n2)C1 [Compound 72, 6-((R)-1-Acryloyl-pyrrolidin-3-ylamino)-2-(4-phenoxy-phenoxy)-nicotinamide]		< 100 nM

Continued, in another order:

IC50 (full-length human BTK)	Structure (SMILES)	IC50 (PBMC)
< 100 nM	C=CC(=O)Nc1cncc(-c2ccc(C(N)=O)c(Oc3ccc(Oc4ccccc4)cc3)n2)c1 [Compound 75, 5′-acrylamido-6-(4-phenoxyphenoxy)-[2,3′-bipyridine]-5-carboxamide]	< 100 nM
< 100 nM	N#CN1CCC[C@H](c2cnc(Oc3ccc(Oc4ccccc4)cc3)c(C(N)=O)c2)C1 [Compound 241, (R)-5-(1-cyanopiperidin-3-yl)-2-(4-phenoxyphenoxy)nicotinamide]	100 to 1000 nM
< 100 nM	C=CC(=O)N1CCC(c2cnc(C(N)=O)c(NC(C)=O)c2)CC1 [Compound 134]	100 to 1000 nM
< 100 nM	C=CC(=O)N1CCC(c2ccc(C(N)=O)c(Nc3ccc(C(=O)N4CCN(C(=O)CCCCNC(=O)CCOCCOCCOCCOCCNC(=O)CCCCC5SCC6NC(=O)NC65)CC4)cc3)n2)CC1 (stereo not drawn) [Compound 177]	> 5000 nM
100 to 1000 nM	N#CN[C@@H]1CCCN(c2ccc(C(N)=O)c(Nc3ccc(C(=O)N4CCOCC4)cc3)n2)C1 [Compound 227, (R)-3-Cyanoamino-6′-[4-(morpholine-4-carbonyl)-phenylamino]-3,4,5,6-tetrahydro-2H-[1,2′]bipyridinyl-5′-carboxylic acid amide]	> 5000 nM
< 100 nM	C=CC(=O)N1CCN(c2ncc(C(N)=O)c(Oc3ccc(Oc4ccccc4)cc3)n2)CC1 [Compound 173, 2-(4-Acryloyl-piperazin-1-yl)-4-(4-phenoxy-phenoxy)-pyrimidine-5-carboxylic acid amide]	< 100 nM
< 100 nM	C=CC(=O)N[C@H]1CCN(c2ccc(C(N)=O)c(Nc3ccc(N4CCCCC4)cc3)n2)C1 [Compound 31, 6-((S)-3-Acryloylamino-pyrrolidin-1-yl)-2-(4-piperidin-1-yl-phenylamino)-nicotinamide]	100 to 1000 nM
< 100 nM	C=CC(=O)N[C@H]1CCN(c2nc(Nc3ccc(CCN4CCCC4)cc3)c(C(N)=O)cc2F)C1 [Compound 179, 6-((S)-3-Acryloylamino-pyrrolidin-1-yl)-5-fluoro-2-[4-(2-pyrrolidin-1-yl-ethyl)-phenylamino]-nicotinamide]	< 100 nM
< 100 nM	C=CC(=O)N[C@H]1CCN(c2nc(Nc3ccc(N4CC(C)OC(C)C4)cc3)c(C(N)=O)cc2F)C1 (stereo partly drawn) [Compound 188, 6-((S)-3-Acryloylamino-pyrrolidin-1-yl)-2-[4-(2,6-dimethyl-morpholin-4-yl)-phenylamino]-5-fluoro-nicotinamide]	< 100 nM
< 100 nM	C=CC(=O)N[C@H]1CCN(c2cc(Nc3ccc(C(=O)N4CCOCC4)cc3)c(C(N)=O)cn2)C1 [Compound 108, 6-((S)-3-Acryloylamino-pyrrolidin-1-yl)-4-[4-(morpholine-4-carbonyl)-phenylamino]-nicotinamide]	100 to 1000 nM
< 100 nM	N#CN1CCCC(c2cnc(Oc3ccc(Oc4ccccc4)cc3)c(C(N)=O)c2)C1 (stereo not drawn) [Compound 236, 1′-Cyano-6-(4-phenoxy-phenoxy)-1′,2′,3′,4′,5′,6′-hexahydro-[3,3′]bipyridinyl-5-carboxylic acid amide]	100 to 1000 nM
< 100 nM	C=CC(=O)N[C@H]1CCN(c2ccc(C(N)=O)c(Nc3ccc(N4CCOCC4)nc3)n2)C1 [Compound 38, 6-((S)-3-Acryloylamino-pyrrolidin-1-yl)-2-(6-morpholin-4-yl-pyridin-3-ylamino)-nicotinamide]	100 to 1000 nM
< 100 nM	C=CC(=O)N[C@H]1CCN(c2ccc(C(N)=O)c(Nc3ccc(C(=O)N4CC(C)OC(C)C4)cc3)n2)C1 (stereo partly drawn) [Compound 40, 6-((S)-3-Acryloylamino-pyrrolidin-1-yl)-2-[4-(2,6-dimethyl-morpholine-4-carbonyl)-phenylamino]-nicotinamide]	100 to 1000 nM
< 100 nM	C=CC(=O)N1CCC=C(c2ccc(C(N)=O)c(Nc3ccc(CCN4CCCC4)cc3)n2)C1 [Compound 44, 1′-Acryloyl-6-[4-(2-pyrrolidin-1-yl-ethyl)-phenylamino]-1′,2′,5′,6′-tetrahydro-[2,3′]bipyridinyl-5-carboxylic acid amide]	100 to 1000 nM
